According to paper PMC6522510 (Nature Communications, 2019):
Read-outs that look alike come from different tables or passages of the source.

Assays:
[1] = test system: MOLM-13; assay: cells; set-up: species or system AML cell lines (8); Secondary HTS, 10-point dose-response in triplicate, Cell Titer Glo viability, four-parameter fit EC50; details: Homo sapiens, MOLM-13, 72 h, read-out: MOLM-13
[2] = test system: CHRF288-11; assay: Secondary dose-response HTS, Cell Titer Glo; format: cell-based, human; details: Homo sapiens, HTS; secondary high-throughput screen; CHRF288-11; read-out: average effective concentration, CHRF288-11
[3] = test system: MOLM-13; assay: Secondary dose-response HTS, Cell Titer Glo; format: cell-based, human; details: Homo sapiens; secondary high-throughput screen; MOLM-13; read-out: average effective concentration, MOLM-13
[4] = test system: ML2; assay: Secondary dose-response HTS, Cell Titer Glo; format: cell-based, human; details: Homo sapiens
[5] = test system: CMS; assay: cells; set-up: species or system AML cell lines (8); Secondary HTS, 10-point dose-response in triplicate, Cell Titer Glo viability, four-parameter fit EC50; details: 72 h, read-out: CMS
[6] = test system: MV4-11; assay: cells; set-up: species or system AML cell lines (8); Secondary HTS, 10-point dose-response in triplicate, Cell Titer Glo viability, four-parameter fit EC50; details: Homo sapiens, MV4-11, 72 h, read-out: MV4-11
[7] = test system: U937; assay: cells; set-up: species or system AML cell lines (8); Secondary HTS, 10-point dose-response in triplicate, Cell Titer Glo viability, four-parameter fit EC50; details: Homo sapiens, U-937, 72 h, read-out: U937
[8] = test system: M07e; assay: cells; set-up: species or system AML cell lines (8); Secondary HTS, 10-point dose-response in triplicate, Cell Titer Glo viability, four-parameter fit EC50; details: M-07e, 72 h, read-out: M07e
[9] = test system: CMK; assay: cells; set-up: species or system AML cell lines (8); Secondary HTS, 10-point dose-response in triplicate, Cell Titer Glo viability, four-parameter fit EC50; details: Homo sapiens, CMK, 72 h, read-out: CMK
[10] = test system: MV4-11; assay: Secondary dose-response HTS, Cell Titer Glo; format: cell-based, human; details: Homo sapiens; secondary high-throughput screen; MV4-11; read-out: average effective concentration, MV4-11
[11] = test system: U937; assay: Secondary dose-response HTS, Cell Titer Glo; format: cell-based, human; details: Homo sapiens
[12] = test system: CMK; assay: Secondary dose-response HTS, Cell Titer Glo; format: cell-based, human; details: Homo sapiens, CMK, read-out: average effective concentration, CMK
[13] = test system: CHRF288-11; assay: cells; set-up: species or system AML cell lines (8); Secondary HTS, 10-point dose-response in triplicate, Cell Titer Glo viability, four-parameter fit EC50; details: 72 h, read-out: CHRF288-11
[14] = secondary high-throughput screen, ML-2, read-out: average effective concentration, ML-2
[15] = U-937, secondary high-throughput screen, U937, read-out: average effective concentration, U937

SMILES	EC50 [1]	EC50 [2]	EC50 [3]	EC50 [4, 14]	EC50 [5]	EC50 [6]	EC50 [7]	EC50 [8]	EC50 [9]	EC50 [10]	EC50 [11, 15]	EC50 [12]	EC50 [13]	EC50 ([4]; ML-2, read-out: average effective concentration, ML-2)	EC50 ([11]; U-937, read-out: average effective concentration, U937)	EC50 ([12]; secondary high-throughput screen)
COc1ccc(-c2ccc3ncc4c(c3c2)n(-c2ccc(N3CCNCC3)c(C(F)(F)F)c2)c(=O)n4C)cn1 [NVP-BGT226]	0.115 µM															
O=C(NOC[C@H](O)CO)c1ccc(F)c(F)c1Nc1ccc(I)cc1F [PD-0325901]		> 10 µM	0.92 µM	0.001 µM	> 10 µM	> 10 µM	> 10 µM	> 10 µM	> 10 µM							
Nc1nc2[nH]cc(CCc3ccc(C(=O)N[C@@H](CCC(=O)O)C(=O)O)cc3)c2c(=O)[nH]1 [PEMETREXED]		0.1 µM	0.048 µM	0.066 µM	> 10 µM		> 10 µM	> 10 µM	> 10 µM	0.035 µM						
O=C(O)C[C@H](O)C[C@H](O)/C=C/c1c(C2CC2)nc2ccccc2c1-c1ccc(F)cc1 [PITAVASTATIN]		2.2 µM	5.3 µM	5.1 µM	> 10 µM			> 10 µM	> 10 µM	7.6 µM	8.5 µM					
COc1cc(/C=C/c2ccc(O)cc2)cc(OC)c1 [PTEROSTILBENE]			> 10 µM		> 10 µM	> 10 µM		> 10 µM				1.4 µM	> 10 µM	> 10 µM	> 10 µM	
Cc1[nH]c2ccccc2c1CCNCc1ccc(/C=C/C(=O)NO)cc1 [Panobinostat]							0.0124 µM									
O=C(NC[C@H](O)CO)c1ccncc1Nc1ccc(I)cc1F [Pimasertib]	> 10 µM			0.001 µM	> 10 µM		> 10 µM	> 10 µM		6.3 µM			> 10 µM			> 10 µM
Cc1nc2ccc(CN(C)c3ccc(C(=O)N[C@@H](CCC(=O)O)C(=O)O)s3)cc2c(=O)[nH]1 [RALTITREXED]		0.095 µM	0.068 µM	0.1 µM	> 10 µM		> 10 µM	> 10 µM	> 10 µM	0.027 µM						
CCOc1cc(C(C)(C)C)ccc1C1=N[C@@](C)(c2ccc(Cl)cc2)[C@@](C)(c2ccc(Cl)cc2)N1C(=O)N1CCN(CCCS(C)(=O)=O)CC1 [RG7112]					> 10 µM		> 10 µM		> 10 µM				> 10 µM			
O=C(O)c1ccc2c(c1)nc(Nc1cccc(Cl)c1)c1ccncc12 [SILMITASERTIB]			> 10 µM	> 10 µM	> 10 µM	> 10 µM	> 10 µM	> 10 µM	> 10 µM				> 10 µM			
CCC(C)(C)C(=O)O[C@H]1C[C@@H](C)C=C2C=C[C@H](C)[C@H](CC[C@@H]3C[C@@H](O)CC(=O)O3)[C@H]21 [SIMVASTATIN]		4.1 µM	> 10 µM	> 10 µM	> 10 µM	> 10 µM	> 10 µM	> 10 µM	> 10 µM							
CNC(=O)c1cc(Oc2ccc(NC(=O)Nc3ccc(Cl)c(C(F)(F)F)c3)cc2)ccn1 [Sorafenib]					> 10 µM	0.0073 µM		> 10 µM	> 10 µM				> 10 µM			
COc1ccc(C[C@@H](C)[C@@H](C)Cc2ccc(OC)c(OC)c2)cc1OC [TERAMEPROCOL]			> 10 µM	> 10 µM	> 10 µM	> 10 µM		> 10 µM	> 10 µM		> 10 µM		> 10 µM			
CC[C@@H]1C(=O)N(C)c2cnc(Nc3ccc(C(=O)N[C@H]4CC[C@H](N5CCN(CC6CC6)CC5)CC4)cc3OC)nc2N1C(C)C [Volasertib]	0.0077 µM							> 10 µM								
O=c1ncccn1[C@@H]1O[C@H](CO)[C@@H](O)[C@H]1O [ZEBULARINE]		8.9 µM	1.1 µM	0.73 µM	> 10 µM	> 10 µM	> 10 µM	> 10 µM	> 10 µM							
CCN(CCCOc1ccc2c(Nc3cc(CC(=O)Nc4cccc(F)c4)n[nH]3)ncnc2c1)CCOP(=O)(O)O [barasertib]					> 10 µM			> 10 µM					> 10 µM			
